Measured values: ChEMBL document CHEMBL6182861, “Structural modification of heptamethine indocyanine dyes with improved aqueous solubility and stability for photothermal therapy” (Eur J Med Chem, 2025)
The source made the active and inactive calls. The calls are words filed in the database; no cut-off is given here.

What was measured:
4T1 [1] = assay: Photothermal cytotoxicity against mouse 4T1 cells assessed as survival rate at 3.12 uM preincubated for 4 hrs followed by exposure to laser irradiation of 808 nm for 2 mins and subsequent incubation for 20 hrs by MTT assay relative to control; type: functional; conditions: 4T1, light or radiation study, 24.03 h, time 1442 min, read-out: Survival
HepG2 [2] = assay: Cytotoxicity against human HepG2 cells assessed as cell viability under dark condition up to 25 uM incubated for 24 hrs by MTT assay relative to control; type: functional
Mitochondrial membrane = assay: Inhibition of mitochondrial membrane potential in mouse 4T1 cells assessed as green fluorescence at 3.12 uM preincubated for 4 hrs followed by exposure to laser irradiation of 808 nm for 2 mins and subsequent incubation for 20 hrs by JC-1 dye based analysis; type: cell membranes; conditions: time 1442.0 min
Mus musculus [3] = assay: Photothermal effect in female BALB/c mouse bearing mouse 4T1 cells at approximately 50 degreeC at 2.5 mg/kg, iv pretreated for 4 hrs followed by exposure to laser irradiation of 808 nm for 5 mins; type: functional, organism-based; conditions: time 245.0 min
[4] = Toxicity in female BALB/c mouse bearing mouse 4T1 cells assessed as body weight at 2.5 mg/kg, iv pretreated for 4 hrs followed by exposure to laser irradiation of 808 nm for 5 mins on every 2 days treated for 15 days; type: organism-based; conditions: in vivo, 360 h, time 15 day
4T1 [5] = assay: Antitumor activity against mouse 4T1 cells implanted in female BALB/c mouse assessed as decrease in tumor volume at 2.5 mg/kg, iv treated for 4 hrs on every 2 days treated for 15 days; type: functional, organism-based; conditions: time 15.0 day
4T1 [6] = assay: Antitumor activity against mouse 4T1 cells implanted in female BALB/c mouse assessed as decrease in tumor size at 2.5 mg/kg, iv pretreated for 4 hrs followed by exposure to laser irradiation of 808 nm for 5 mins on every 2 days treated for 15 days; type: functional, organism-based; conditions: time 15.0 day
4T1 [7] = assay: Antitumor activity against mouse 4T1 cells implanted in female BALB/c mouse assessed as decrease in tumor weight at 2.5 mg/kg, iv pretreated for 4 hrs followed by exposure to laser irradiation of 808 nm for 5 mins on every 2 days treated for 15 days; type: functional, organism-based; conditions: time 15.0 day
4T1 [8] = assay: Antitumor activity against mouse 4T1 cells implanted in female BALB/c mouse assessed as nuclei rupture at 2.5 mg/kg, iv pretreated for 4 hrs followed by exposure to laser irradiation of 808 nm for 5 mins on every 2 days treated for 15 days by H and E staining based analysis; type: functional, organism-based; conditions: time 15.0 day
4T1 [9] = assay: Antitumor activity against mouse 4T1 cells implanted in female BALB/c mouse assessed as loosely arranged cells at 2.5 mg/kg, iv pretreated for 4 hrs followed by exposure to laser irradiation of 808 nm for 5 mins on every 2 days treated for 15 days by H and E staining based analysis; type: functional, organism-based; conditions: time 15.0 day
H22 = assay: Antitumor activity against mouse H22 cells implanted in female ICR mouse assessed as tumor growth inhibition at 2.5 mg/kg, iv pretreated for 4 hrs followed by exposure to laser irradiation of 808 nm for 5 mins on every 2 days treated for 15 days; type: functional, organism-based; conditions: time 15.0 day
[10] = Toxicity in female BALB/c mouse bearing mouse 4T1 cells assessed as damage in spleen at 2.5 mg/kg, iv pretreated for 4 hrs followed by exposure to laser irradiation of 808 nm for 5 mins on every 2 days treated for 15 days by H and E staining based analysis; type: organism-based; conditions: in vivo, 360 h, time 15 day
[11] = Toxicity in female BALB/c mouse bearing mouse 4T1 cells assessed as damage in lung at 2.5 mg/kg, iv pretreated for 4 hrs followed by exposure to laser irradiation of 808 nm for 5 mins on every 2 days treated for 15 days by H and E staining based analysis; type: organism-based; conditions: in vivo, 360 h, time 15 day
[12] = Toxicity in female BALB/c mouse bearing mouse 4T1 cells assessed as damage in kidney at 2.5 mg/kg, iv pretreated for 4 hrs followed by exposure to laser irradiation of 808 nm for 5 mins on every 2 days treated for 15 days by H and E staining based analysis; type: organism-based; conditions: in vivo, 360 h, time 15 day
[13] = Toxicity in ICR mouse bearing mouse H22 cells assessed as damage in liver at 2.5 mg/kg, iv pretreated for 4 hrs followed by exposure to laser irradiation of 808 nm for 5 mins on every 2 days treated for 15 days by H and E staining based analysis; type: organism-based; conditions: in vivo, 360 h, time 15 day
[14] = Toxicity in ICR mouse bearing mouse H22 cells assessed as damage in spleen at 2.5 mg/kg, iv pretreated for 4 hrs followed by exposure to laser irradiation of 808 nm for 5 mins on every 2 days treated for 15 days by H and E staining based analysis; type: organism-based; conditions: in vivo, 360 h, time 15 day
[15] = Toxicity in ICR mouse bearing mouse H22 cells assessed as damage in kidney at 2.5 mg/kg, iv pretreated for 4 hrs followed by exposure to laser irradiation of 808 nm for 5 mins on every 2 days treated for 15 days by H and E staining based analysis; type: organism-based; conditions: in vivo, 360 h, time 15 day
HepG2 [16] = assay: Photothermal cytotoxicity against human HepG2 cells up to 25 uM preincubated for 4 hrs followed by exposure to laser irradiation of 808 nm for 2 mins and subsequent incubation for 20 hrs by MTT assay; type: functional, cell-based; conditions: time 1442.0 min
[17] = Biodistribution in liver of female BALB/c mouse bearing mouse 4T1 cells at 1.8 mg/kg, iv measured up to 12 hrs by fluorescence imaging analysis; type: ADME, organism-based; conditions: in vivo
Mus musculus [18] = assay: Photothermal effect in female BALB/c mouse bearing mouse 4T1 cells at 42 degreeC at 1.8 mg/kg, iv pretreated for 4 hrs followed by exposure to laser irradiation of 808 nm for 5 mins; type: functional, organism-based; conditions: time 245.0 min
[19] = Drug excretion in female BALB/c mouse bearing mouse 4T1 cells at 1.8 mg/kg, iv measured up to 12 hrs by fluorescence imaging analysis; type: ADME, organism-based; conditions: in vivo
[20] = Drug accumulation in tumor of female BALB/c mouse bearing mouse 4T1 cells assessed as increase in fluorescence intensity at 1.8 mg/kg, iv measured after 4 hrs by fluorescence imaging analysis; type: ADME, organism-based, Neoplasm; conditions: in vivo
[21] = Toxicity in female BALB/c mouse bearing mouse 4T1 cells assessed as damage in heart at 1.8 mg/kg, iv pretreated for 4 hrs followed by exposure to laser irradiation of 808 nm for 5 mins on every 2 days treated for 15 days by H and E staining based analysis; type: organism-based; conditions: in vivo, 360 h, time 15 day
[22] = Toxicity in female BALB/c mouse bearing mouse 4T1 cells assessed as damage in kidney at 1.8 mg/kg, iv pretreated for 4 hrs followed by exposure to laser irradiation of 808 nm for 5 mins on every 2 days treated for 15 days by H and E staining based analysis; type: organism-based; conditions: in vivo, 360 h, time 15 day
[23] = Toxicity in ICR mouse bearing mouse H22 cells assessed as damage in heart at 1.8 mg/kg, iv pretreated for 4 hrs followed by exposure to laser irradiation of 808 nm for 5 mins on every 2 days treated for 15 days by H and E staining based analysis; type: organism-based; conditions: in vivo, 360 h, time 15 day
[24] = Toxicity in ICR mouse bearing mouse H22 cells assessed as damage in spleen at 1.8 mg/kg, iv pretreated for 4 hrs followed by exposure to laser irradiation of 808 nm for 5 mins on every 2 days treated for 15 days by H and E staining based analysis; type: organism-based; conditions: in vivo, 360 h, time 15 day
[25] = Toxicity in ICR mouse bearing mouse H22 cells assessed as damage in lung at 1.8 mg/kg, iv pretreated for 4 hrs followed by exposure to laser irradiation of 808 nm for 5 mins on every 2 days treated for 15 days by H and E staining based analysis; type: organism-based; conditions: in vivo, 360 h, time 15 day

For `COCCOCCOCCN1/C(=C/C=C/C(=C/C=C/C2=[N+](CCOCCOCCOC)c3ccccc3C2(C)C)C(=O)OC)C(C)(C)c2ccccc21.[I-]`, the viability at 3.12 µM (4T1 [1]) was 36%, the Activity (HepG2 [2]) was 55% and the inhibition (Mitochondrial membrane) was “Active”. For the same molecule, the Activity (Mus musculus [3]) was “Active; Compound Exhibited Superior Effect Among Tested Compounds”, the Activity [4] was 18 g and the Activity (4T1 [5]) was “inactive”. The Activity (4T1 [6]) was “Active”, the Activity (4T1 [7]) was “Active” and the Activity (4T1 [8]) was “Active”. For the same molecule, the Activity (4T1 [9]) was “Active”, the inhibition (H22) was “Active” and the Activity [10] was “Non-toxic”. For the same molecule, the Activity [11] was “Non-toxic”, the Activity [12] was “Non-toxic” and the Activity [13] was “Non-toxic”. The Activity [14] was “Non-toxic” and the Activity [15] was “Non-toxic”.
For `COC(=O)C(=C\C=C\C1=[N+](C)c2ccccc2C1(C)C)/C=C/C=C1/N(C)c2ccccc2C1(C)C.[I-]`, the Activity (HepG2 [16]) was “Not active; Limited Photo-Thermal Toxicity Was Observed”, the Drug uptake [17] was “Active” and the Activity (Mus musculus [18]) was “Active”. For the same molecule, the Drug excretion [19] was “Active”, the Drug uptake [20] was “Active” and the Activity [21] was “Non-toxic”. The Activity [22] was “Non-toxic”, the Activity [23] was “Non-toxic” and the Activity [24] was “Non-toxic”. The Activity [25] was “Non-toxic”.
